Columns and labels:
Experiment in all cases: relative viability (nuclei count vs DMSO), 5 days (fraction); higher = more cells survive
[1] = tested on: NCI-H727
Outline: (§1)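 The day after seeding in 1536-well plates, lung cancer cell lines were treated by pin tool with a single drug, or with a fixed anchor-drug dose together with five library-drug doses (not always all listed) in √10 steps. After 5 days, a combined fix-and-stain solution (final 0.05% Triton X-100, 1% formaldehyde, 1 ug/ml Hoechst) was added. Nuclei counted on 4× images gave relative viability as treated counts over vehicle counts, reported as the median of duplicate plates.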

[2] = tested on: HCC-827
Outline: as §1

[3] = tested on: NCI-H2085
Outline: as §1

[4] = tested on: HCC-366
Outline: as §1

[5] = tested on: HCC-78
Outline: as §1

[6] = tested on: SK-LU-1
Outline: as §1

[7] = tested on: NCI-H1395
Outline: as §1

[8] = tested on: EPLC-272H
Outline: as §1

[9] = tested on: NCI-H1975
Outline: as §1

[10] = tested on: UMC-11
Outline: as §1

[11] = tested on: HCC-15
Outline: as §1

[12] = tested on: NCI-H1792
Outline: as §1

[13] = tested on: NCI-H661
Outline: as §1

[14] = tested on: NCI-H2405
Outline: as §1

[15] = tested on: NCI-H1944
Outline: as §1

[16] = tested on: COR-L23
Outline: as §1

[17] = tested on: HARA
Outline: as §1

[18] = tested on: NCI-H2023
Outline: as §1

[19] = tested on: COR-L 105
Outline: as §1

[20] = tested on: LCLC-103H
Outline: as §1

[21] = tested on: NCI-H358
Outline: as §1

[22] = tested on: NCI-H1437
Outline: as §1

[23] = tested on: HCC-44
Outline: as §1

SMILES: O=c1[nH]c2ccccc2n1C1CCN(CCCC(c2ccc(F)cc2)c2ccc(F)cc2)CC1 [Pimozide] + Nc1ncn([C@H]2C[C@H](O)[C@@H](CO)O2)c(=O)n1 [Decitabine] (partner 2 µM)
- relative viability ([1]; first compound 0.08 µM): 0.834
- relative viability ([1]; first compound 0.253 µM): 0.588
- relative viability ([1]; first compound 0.8 µM): 0.933
- relative viability ([1]; first compound 2.53 µM): 0.98
- relative viability ([1]; first compound 8 µM): 0.856
- relative viability ([2]; first compound 0.253 µM): 0.284
- relative viability ([2]; first compound 0.8 µM): 0.348
- relative viability ([2]; first compound 2.53 µM): 0.334
- relative viability ([2]; first compound 8 µM): 0.32
- relative viability ([3]; first compound 0.08 µM): 0.545
- relative viability ([3]; first compound 0.253 µM): 0.544
- relative viability ([3]; first compound 0.8 µM): 0.573
- relative viability ([3]; first compound 2.53 µM): 0.551
- relative viability ([3]; first compound 8 µM): 0.585
- relative viability ([4]; first compound 0.08 µM): 0.324
- relative viability ([4]; first compound 0.253 µM): 0.34
- relative viability ([4]; first compound 0.8 µM): 0.285
- relative viability ([4]; first compound 2.53 µM): 0.346
- relative viability ([4]; first compound 8 µM): 0.296
- relative viability ([5]; first compound 0.08 µM): 0.735
- relative viability ([5]; first compound 0.8 µM): 0.671
- relative viability ([5]; first compound 2.53 µM): 0.671
- relative viability ([5]; first compound 8 µM): 0.702
- relative viability ([6]; first compound 0.08 µM): 0.631
- relative viability ([6]; first compound 0.253 µM): 0.741
- relative viability ([6]; first compound 0.8 µM): 0.6
- relative viability ([6]; first compound 2.53 µM): 0.583
- relative viability ([6]; first compound 8 µM): 0.49
- relative viability ([7]; first compound 0.08 µM): 0.692
- relative viability ([7]; first compound 0.253 µM): 0.74
- relative viability ([7]; first compound 0.8 µM): 0.633
- relative viability ([7]; first compound 2.53 µM): 0.691
- relative viability ([7]; first compound 8 µM): 0.637
- relative viability ([8]; first compound 0.08 µM): 0.309
- relative viability ([8]; first compound 0.253 µM): 0.362
- relative viability ([8]; first compound 0.8 µM): 0.33
- relative viability ([8]; first compound 2.53 µM): 0.32
- relative viability ([8]; first compound 8 µM): 0.318
- relative viability ([9]; first compound 0.08 µM): 0.347
- relative viability ([9]; first compound 0.253 µM): 0.387
- relative viability ([9]; first compound 0.8 µM): 0.391
- relative viability ([9]; first compound 2.53 µM): 0.368
- relative viability ([9]; first compound 8 µM): 0.419
- relative viability ([10]; first compound 0.08 µM): 0.638
- relative viability ([10]; first compound 0.253 µM): 0.579
- relative viability ([10]; first compound 0.8 µM): 0.53
- relative viability ([10]; first compound 2.53 µM): 0.593
- relative viability ([10]; first compound 8 µM): 1.03
- relative viability ([11]; first compound 0.08 µM): 0.658
- relative viability ([11]; first compound 0.253 µM): 0.629
- relative viability ([11]; first compound 0.8 µM): 0.452
- relative viability ([11]; first compound 2.53 µM): 0.551
- relative viability ([11]; first compound 8 µM): 0.66
- relative viability ([12]; first compound 0.08 µM): 0.59
- relative viability ([12]; first compound 0.253 µM): 0.53
- relative viability ([12]; first compound 0.8 µM): 0.33
- relative viability ([12]; first compound 2.53 µM): 0.534
- relative viability ([12]; first compound 8 µM): 0.547
- relative viability ([13]; first compound 0.08 µM): 0.564
- relative viability ([13]; first compound 0.253 µM): 0.581
- relative viability ([13]; first compound 0.8 µM): 0.48
- relative viability ([13]; first compound 2.53 µM): 0.497
- relative viability ([13]; first compound 8 µM): 0.495
- relative viability ([14]; first compound 0.08 µM): 0.71
- relative viability ([14]; first compound 0.253 µM): 0.686
- relative viability ([14]; first compound 0.8 µM): 0.695
- relative viability ([14]; first compound 2.53 µM): 0.69
- relative viability ([14]; first compound 8 µM): 0.669
- relative viability ([15]; first compound 0.08 µM): 0.398
- relative viability ([15]; first compound 2.53 µM): 0.436
- relative viability ([15]; first compound 8 µM): 0.393
- relative viability ([16]; first compound 0.08 µM): 0.409
- relative viability ([16]; first compound 0.253 µM): 0.446
- relative viability ([16]; first compound 0.8 µM): 0.411
- relative viability ([16]; first compound 2.53 µM): 0.424
- relative viability ([16]; first compound 8 µM): 0.495
- relative viability ([17]; first compound 0.08 µM): 0.535
- relative viability ([17]; first compound 0.253 µM): 0.586
- relative viability ([17]; first compound 0.8 µM): 0.476
- relative viability ([17]; first compound 2.53 µM): 0.528
- relative viability ([17]; first compound 8 µM): 0.617
- relative viability ([18]; first compound 0.08 µM): 0.229
- relative viability ([18]; first compound 0.253 µM): 0.273
- relative viability ([18]; first compound 0.8 µM): 0.196
- relative viability ([18]; first compound 2.53 µM): 0.247
- relative viability ([18]; first compound 8 µM): 0.284
- relative viability ([19]; first compound 0.08 µM): 0.49
- relative viability ([19]; first compound 0.253 µM): 0.702
- relative viability ([19]; first compound 0.8 µM): 0.623
- relative viability ([19]; first compound 2.53 µM): 0.659
- relative viability ([19]; first compound 8 µM): 0.701
- relative viability ([20]; first compound 0.08 µM): 0.765
- relative viability ([20]; first compound 0.253 µM): 0.712
- relative viability ([20]; first compound 0.8 µM): 0.674
- relative viability ([20]; first compound 2.53 µM): 0.691
- relative viability ([20]; first compound 8 µM): 0.707
- relative viability ([21]; first compound 0.08 µM): 0.196
- relative viability ([21]; first compound 0.253 µM): 0.219
- relative viability ([21]; first compound 0.8 µM): 0.315
- relative viability ([21]; first compound 2.53 µM): 0.213
- relative viability ([21]; first compound 8 µM): 0.228
- relative viability ([22]; first compound 0.08 µM): 0.632
- relative viability ([22]; first compound 0.253 µM): 0.547
- relative viability ([22]; first compound 0.8 µM): 0.555
- relative viability ([22]; first compound 2.53 µM): 0.465
- relative viability ([22]; first compound 8 µM): 0.549
- relative viability ([23]; first compound 0.08 µM): 1.01
- relative viability ([23]; first compound 0.253 µM): 0.983
- relative viability ([23]; first compound 0.8 µM): 0.843
- relative viability ([23]; first compound 2.53 µM): 0.935
- relative viability ([23]; first compound 8 µM): 0.919

— the supplement of paper PMC10307832
